Measured values from patent publication US11078228B2, “Ectonucleotidase inhibitors and methods of use thereof” (Calithera Biosciences, Inc., priority 2018, dated 2021).

Biological target: recombinant CD73 (Homo sapiens (Human), UniProt P21589)
Test: Assay 2: Inhibition of the CD73 enzyme in vitro (0.05 nM CD73, 1 hour 37° C., Malachite Green)
Assay type: biochemical
Details: 0.05 nM CD73, 50 μM AMP, 1 hour at 37° C.
Procedure: For measurements of soluble CD73 enzyme activity, recombinant CD73 was obtained from R&D Systems, Cat. No. 5795-EN-010. […] Reactions were allowed to proceed for 1 hour at 37° C. before the addition of 100 μL Malachite Green (Cell Signaling Technology, Cat. No. 12776). After 5 minutes at room temperature, absorbance at 630 nm was determined on a microplate spectrophotometer. The concentration of inorganic phosphate was determined using a phosphate standard curve.

recombinant CD73, sequence (P21589 27-547): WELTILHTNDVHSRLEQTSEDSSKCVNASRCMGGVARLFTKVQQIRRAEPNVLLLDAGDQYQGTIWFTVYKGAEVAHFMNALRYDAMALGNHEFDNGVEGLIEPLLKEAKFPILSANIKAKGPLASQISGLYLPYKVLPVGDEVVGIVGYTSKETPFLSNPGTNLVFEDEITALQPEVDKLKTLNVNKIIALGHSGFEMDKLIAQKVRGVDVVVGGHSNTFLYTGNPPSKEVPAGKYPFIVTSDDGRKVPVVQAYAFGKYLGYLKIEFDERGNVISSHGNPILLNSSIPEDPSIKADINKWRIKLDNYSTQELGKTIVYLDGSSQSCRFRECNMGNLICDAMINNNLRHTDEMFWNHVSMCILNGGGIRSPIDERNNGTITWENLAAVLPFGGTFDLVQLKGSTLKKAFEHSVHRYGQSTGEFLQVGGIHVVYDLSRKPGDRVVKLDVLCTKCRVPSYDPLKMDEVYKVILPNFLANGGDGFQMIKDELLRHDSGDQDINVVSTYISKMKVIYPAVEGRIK

Point of comparison: C#C[C@@]1(O)[C@@H](COC(Cc2ccccc2)(C(=O)O)C(=O)NC)O[C@@H](n2cnc3c(NCC4CC4)nc(Cl)nc32)[C@@H]1O (stereo partly drawn) [Example 106, 2-benzyl-2-(((2R,3S,4R,5R)-5-(2-chloro-6-((cyclopropylmethyl)amino)-9H-purin-9-yl)-3-ethynyl-3,4-dihydroxytetrahydrofuran-2-yl)methoxy)-3-(methylamino)-3-oxopropanoic acid], IC50 296 nM. Against it:
- C#C[C@@]1(O)[C@@H](CO[C@](Cc2ccccc2)(C(=O)O)c2cscn2)O[C@@H](n2cnc3c(NC(C)C)nc(Cl)nc32)[C@@H]1O (single isomer, unassigned) [Example 170] — 37-fold lower, 8 nM
- C#C[C@@]1(O)[C@@H](COC(Cc2cc(C)on2)(C(=O)O)C(=O)O)O[C@@H](n2cnc3c(NC(C)C)nc(Cl)nc32)[C@@H]1O [Example 110, 2-(((2R,3S,4R,5R)-5-(2-chloro-6-(isopropylamino)-9H-purin-9-yl)-3-ethynyl-3,4-dihydroxytetrahydrofuran-2-yl)methoxy)-2-((5-methylisoxazol-3-yl)methyl)malonic acid] — 99-fold lower, 3 nM
- C#C[C@@]1(O)[C@@H](COC(Cc2ccc(N3CCCNC3=O)cc2)(C(=O)O)c2cscn2)O[C@@H](n2cnc3c(N)nc(Cl)nc32)[C@@H]1O (stereo partly drawn) [Example 175, 2-(((2R,3S,4R,5R)-5-(6-amino-2-chloro-9H-purin-9-yl)-3-ethynyl-3,4-dihydroxytetrahydrofuran-2-yl)methoxy)-3-(4-(2-oxotetrahydropyrimidin-1 (2H)-yl)phenyl)-2-(thiazol-4-yl)propanoic acid] — 300-fold lower, 1 nM
- C#C[C@@]1(O)[C@@H](COC(Cc2ccc(N3CCCN(C)C3=O)cc2)(C(=O)O)C(=O)O)O[C@@H](n2cnc3c(NCC4CC4)nc(Cl)nc32)[C@@H]1O [Example 150, 2-(((2R,3S,4R,5R)-5-(2-chloro-6-((cyclopropylmethyl)amino)-9H-purin-9-yl)-3-ethynyl-3,4-dihydroxytetrahydrofuran-2-yl)methoxy)-2-(4-(3-methyl-2-oxotetrahydropyrimidin-1 (2H)-yl)benzyl)malonic acid] — 1800-fold lower, 0.16 nM
- C#C[C@@]1(O)[C@@H](COC(Cc2ccn[nH]2)(C(=O)O)C(=O)O)O[C@@H](n2cnc3c(N)nc(Cl)nc32)[C@@H]1O [Example 158, 2-((1H-pyrazol-5-yl)methyl)-2-(((2R,3S,4R,5R)-5-(6-amino-2-chloro-9H-purin-9-yl)-3-ethynyl-3,4-dihydroxytetrahydrofuran-2-yl)methoxy)malonic acid] — 37-fold lower, 8 nM
- C#C[C@@]1(O)[C@@H](COC(Cc2ccccc2)(C(=O)O)C(=O)O)O[C@@H](n2cnc3c(-c4cccs4)nc(Cl)nc32)[C@@H]1O [Example 18, 2-benzyl-2-(((2R,3S,4R,5R)-5-(2-chloro-6-(thiophen-2-yl)-9H-purin-9-yl)-3-ethynyl-3,4-dihydroxytetrahydrofuran-2-yl)methoxy)malonic acid] — 990-fold lower, 0.3 nM
- C#C[C@@]1(O)[C@@H](COC(Cc2ccc(N3CCCN(CCO)C3=O)cc2)(C(=O)O)C(=O)O)O[C@@H](n2cnc3c(NC)nc(Cl)nc32)[C@@H]1O [Example 137, 2-(((2R,3S,4R,5R)-5-(2-chloro-6-(methylamino)-9H-purin-9-yl)-3-ethynyl-3,4-dihydroxytetrahydrofuran-2-yl)methoxy)-2-(4-(3-(2-hydroxyethyl)-2-oxotetrahydropyrimidin-1 (2H)-yl)benzyl)malonic acid] — 950-fold lower, 0.31 nM
- C#C[C@@]1(O)[C@@H](COC(Cc2cccs2)(C(=O)O)C(=O)O)O[C@@H](n2cnc3c(N)nc(Cl)nc32)[C@@H]1O [Example 128, 2-(((2R,3S,4R,5R)-5-(6-amino-2-chloro-9H-purin-9-yl)-3-ethynyl-3,4-dihydroxytetrahydrofuran-2-yl)methoxy)-2-(thiophen-2-ylmethyl)malonic acid] — 49-fold lower, 6 nM
